Legend:
[1] = target: T1, recombinant human α1D receptor (Homo sapiens, UniProt P25100); experiment: Adrenergic α1D selectivity assay, [3H]-prazosin binding to membranes; settings: inhibition of [3H]-prazosin binding, HEK cell membranes, read-out: α1 bind pIC50 (converted)
T1 construct: expressed in transfected cells; host or cells: human embryonic kidney 293 cells (HEK93 [sic]), membranes
T1 sequence (P25100 1-572): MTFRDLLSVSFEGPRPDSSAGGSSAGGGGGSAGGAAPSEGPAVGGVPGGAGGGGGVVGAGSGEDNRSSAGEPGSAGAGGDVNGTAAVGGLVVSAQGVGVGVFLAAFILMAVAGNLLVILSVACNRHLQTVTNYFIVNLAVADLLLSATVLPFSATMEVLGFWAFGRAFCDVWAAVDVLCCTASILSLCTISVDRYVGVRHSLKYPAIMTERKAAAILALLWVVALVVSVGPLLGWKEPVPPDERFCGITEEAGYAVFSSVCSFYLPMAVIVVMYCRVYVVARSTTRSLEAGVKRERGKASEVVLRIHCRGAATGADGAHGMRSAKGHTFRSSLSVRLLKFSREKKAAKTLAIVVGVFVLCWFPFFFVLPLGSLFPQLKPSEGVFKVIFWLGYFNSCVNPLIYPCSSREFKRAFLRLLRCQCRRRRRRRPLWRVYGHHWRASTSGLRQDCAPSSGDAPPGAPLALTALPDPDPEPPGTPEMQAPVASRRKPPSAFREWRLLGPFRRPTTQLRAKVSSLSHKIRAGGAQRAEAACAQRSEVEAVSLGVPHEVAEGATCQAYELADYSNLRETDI
Procedure: Membranes were prepared from human embryonic kidney 293 ([…]) cells expressing recombinant human α1D receptor. These were diluted in Assay Buffer (50 mM HEPES, 1 mM EDTA, pH 7.4) to provide a final concentration of membranes that gave a clear window between maximum and minimum specific binding.
(§1) Assays were performed in U-bottomed 96-well polypropylene plates. 10 μL [^3H]-prazosin (0.3 nM final concentration) and 10 mL of test compound (10× final concentration) were added to each test well. For each assay plate 8 replicates were obtained for [^3H]-prazosin binding in the presence of 10 μL vehicle (10% (v/v) DMSO in Assay Buffer; defining maximum binding) or 10 μL BMY7378 (10 μM final concentration; defining non-specific binding (NSB)). Membranes were then added to achieve a final volume of 100 μL. The plates were incubated for 2 hours at room temperature and then filtered onto PEI coated GF/B filter plates, pre-soaked for 1 hour in Assay Buffer, using a 96-well plate Tomtec cell harvester. Five washes with 250 μL wash buffer (50 mM HEPES, 1 mM EDTA, pH 7.4) were performed at 4° C. to remove unbound radioactivity. The plates were dried then sealed from underneath using Packard plate sealers and MicroScint-O (50 μL) was added to each well. The plates were sealed (TopSeal A) and filter-bound radioactivity was measured with a scintillation counter (TopCount, Packard BioScience) using a 3-minute counting protocol.
(§2) Total specific binding (B0) was determined by subtracting the mean NSB from the mean maximum binding. NSB values were also subtracted from values from all other wells. […] Data was fitted to a four parameter logistic equation to determine the compound potency, which was expressed as pIC50 (negative log molar concentration inducing 50% inhibition of [^3H]-prazosin binding).

[2] = target: T2, recombinant human adrenergic beta 1 receptors (Homo sapiens, UniProt P08588); experiment: Adrenergic β1 selectivity assay, [125I]-Iodocyanopindolol binding to membranes; settings: inhibition of [125I]-Iodocyanopindolol binding, read-out: β1 bind pIC50 (converted)
T2 construct: purchased Euroscreen
Procedure: (§3) Membranes containing recombinant human adrenergic beta 1 receptors were obtained from Euroscreen. These were diluted in Assay Buffer (50 mM HEPES, 1 mM EDTA, 120 mM NaCl, 0.1% gelatin, pH 7.4) to provide a final concentration of membranes that gave a clear window between maximum and minimum specific binding.
as §1, with “[^125I]-Iodocyanopindolol (0.036” for “[^3H]-prazosin (0.3”, “μL” for “mL”, “[^125I]-Iodocyanopindolol” for “[^3H]-prazosin”, “Propranolol” for “BMY7378”, “EDTA, 120 mM NaCl,” for “EDTA,”
as §2, with “[^125I]-Iodocyanopindolol” for “[^3H]-prazosin”

[3] = target: T3, Adrenergic β2 (Homo sapiens, UniProt P07550); experiment: Adrenergic β2 mediated cAMP production in H292 cells (AlphaScreen cAMP detection); assay type: cell-based; set-up: key to β2 Int Act: fraction of formoterol maximum activity (formoterol = 1); settings: for β2 Int Act: Intrinsic Activity as a fraction relative to the maximum activity determined for formoterol; for EC50: cAMP production, 60 minutes at room temperature, 300 μM rolipram, read-out: β2 pEC50 (converted)
T3 construct: Adherent H292 cells were removed from tissue culture flasks; endogenous in cells; host or cells: H292 cells
Procedure: Adrenergic β2 Mediated cAMP Production
H292 cells were grown in 225 cm2 flasks incubator at 37° C., 5% CO2 in RPMI medium containing, 10% (v/v) FBS (foetal bovine serum) and 2 mM L-glutamine.
Adherent H292 cells were removed from tissue culture flasks by treatment with Accutase™ cell detachment solution for 15 minutes. Flasks were incubated for 15 minutes in a humidified incubator at 37° C., 5% CO2. Detached cells were re-suspended in RPMI media (containing 10% (v/v) FBS and 2 mM L-glutamine) at 1×10^6 cells per mL. 10000 cells in 100 μL were added to each well of a tissue-culture-treated 96-well plate and the cells incubated overnight in a humidified incubator at 37° C., 5% CO2. The culture media was removed and cells were washed twice with 100 μL assay buffer and replaced with 50 μL assay buffer (HBSS solution containing 10 mM HEPES pH7.4 and 5 mM glucose). Cells were rested at room temperature for 20 minutes after which time 25 μL of rolipram (1.2 mM made up in assay buffer containing 2.4% (v/v) dimethylsulphoxide) was added. Cells were incubated with rolipram for 10 minutes after which time test compounds were added and the cells were incubated for 60 minutes at room temperature. The final rolipram concentration in the assay was 300 μM and final vehicle concentration was 1.6% (v/v) dimethylsulphoxide. The reaction was stopped by removing supernatants, washing once with 100 μL assay buffer and replacing with 50 μL lysis buffer. The cell monolayer was frozen at −80° C. for 30 minutes (or overnight).
AlphaScreen™ cAMP Detection
The concentration of cAMP (cyclic adenosine monophosphate) in the cell lysate was determined using AlphaScreen™ methodology. The frozen cell plate was thawed for 20 minutes on a plate shaker then 10 μL of the cell lysate was transferred to a 96-well white plate. 40 μL of mixed AlphaScreen™ detection beads pre-incubated with biotinylated cAMP, was added to each well and the plate incubated at room temperature for 10 hours in the dark. The AlphaScreen™ signal was measured using an EnVision spectrophotometer (Perkin-Elmer Inc.) with the recommended manufacturer's settings. cAMP concentrations were determined by reference to a calibration curve determined in the same experiment using standard cAMP concentrations. Concentration response curves for agonists were constructed and data was fitted to a four parameter logistic equation to determine both the pEC50 and Intrinsic Activity. Intrinsic Activity was expressed as a fraction relative to the maximum activity determined for formoterol in each experiment.

[4] = target: T4, recombinant human Dopamine Subtype D2s receptors (Homo sapiens, UniProt P14416); experiment: Dopamine D2 selectivity assay, [3H]-spiperone binding to membranes; settings: inhibition of [3H]-spiperone binding, read-out: D2 bind pIC50 (converted)
T4 construct: purchased Perkin Elmer
Procedure: as §3, with “Dopamine Subtype D2s” for “adrenergic beta 1”, “Perkin Elmer.” for “Euroscreen.”
Assays were performed in U-bottomed 96-well polypropylene plates. 30 μL [^3H]-spiperone (0.16 nM final concentration) and 30 μL of test compound (10× final concentration) were added to each test well. For each assay plate 8 replicates were obtained for [^3H]-spiperone binding in the presence of 30 μL vehicle (10% (v/v) DMSO in Assay Buffer; defining maximum binding) or 30 μL Haloperidol (10 μM final concentration; defining non-specific binding (NSB)). Membranes were then added to achieve a final volume of 300 μL. The plates were incubated for 2 hours at room temperature and then filtered onto PEI coated GF/B filter plates, pre-soaked for 1 hour in Assay Buffer, using a 96-well plate Tomtec cell harvester. Five washes with 250 μL wash buffer (50 mM HEPES, 1 mM EDTA, 120 mM NaCl, pH 7.4) were performed at 4° C. to remove unbound radioactivity. The plates were dried then sealed from underneath using Packard plate sealers and MicroScint-0 (50 μL) was added to each well. The plates were sealed (TopSeal A) and filter-bound radioactivity was measured with a scintillation counter (TopCount, Packard BioScience) using a 3-minute counting protocol.
as §2, with “[^3H]-spiperone” for “[^3H]-prazosin”

T2 sequence (P08588 whole entry): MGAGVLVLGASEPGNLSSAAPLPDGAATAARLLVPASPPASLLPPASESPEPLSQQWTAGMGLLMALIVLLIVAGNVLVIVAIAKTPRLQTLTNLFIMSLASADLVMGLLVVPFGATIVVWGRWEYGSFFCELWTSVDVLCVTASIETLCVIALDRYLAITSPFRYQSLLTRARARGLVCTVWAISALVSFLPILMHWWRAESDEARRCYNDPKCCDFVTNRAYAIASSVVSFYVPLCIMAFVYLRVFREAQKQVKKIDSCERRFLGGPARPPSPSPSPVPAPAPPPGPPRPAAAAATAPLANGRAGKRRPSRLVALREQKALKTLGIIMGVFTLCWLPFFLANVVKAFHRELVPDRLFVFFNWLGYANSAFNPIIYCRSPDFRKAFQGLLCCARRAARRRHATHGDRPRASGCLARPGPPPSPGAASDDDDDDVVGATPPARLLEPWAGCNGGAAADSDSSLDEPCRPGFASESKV
T4 sequence (P14416 1-414 isoform P14416-2): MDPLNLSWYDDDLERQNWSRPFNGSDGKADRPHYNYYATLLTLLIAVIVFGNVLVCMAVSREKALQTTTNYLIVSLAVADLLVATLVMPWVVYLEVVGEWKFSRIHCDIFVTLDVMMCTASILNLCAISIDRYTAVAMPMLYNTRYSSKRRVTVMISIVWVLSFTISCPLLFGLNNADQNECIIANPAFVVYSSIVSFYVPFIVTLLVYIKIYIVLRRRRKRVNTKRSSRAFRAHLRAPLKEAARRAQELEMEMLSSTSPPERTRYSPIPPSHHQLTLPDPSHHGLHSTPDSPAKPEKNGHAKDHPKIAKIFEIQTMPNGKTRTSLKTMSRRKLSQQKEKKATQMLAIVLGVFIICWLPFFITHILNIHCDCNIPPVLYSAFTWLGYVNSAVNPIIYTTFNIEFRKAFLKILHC
T3 sequence (P07550 whole entry): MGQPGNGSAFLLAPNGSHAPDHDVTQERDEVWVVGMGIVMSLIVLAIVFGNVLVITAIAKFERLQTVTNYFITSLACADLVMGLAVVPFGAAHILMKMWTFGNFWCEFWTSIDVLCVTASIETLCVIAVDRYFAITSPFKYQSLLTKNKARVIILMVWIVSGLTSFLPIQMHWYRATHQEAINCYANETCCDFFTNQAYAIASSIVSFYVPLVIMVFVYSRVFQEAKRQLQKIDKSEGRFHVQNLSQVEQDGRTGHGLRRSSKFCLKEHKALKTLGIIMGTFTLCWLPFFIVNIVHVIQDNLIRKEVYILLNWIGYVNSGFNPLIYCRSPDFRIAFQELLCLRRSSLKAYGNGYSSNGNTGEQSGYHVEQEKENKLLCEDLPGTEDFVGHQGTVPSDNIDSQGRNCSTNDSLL

IC50 [1]	IC50 [2]	β2 Int Act [3]	EC50 [3]	IC50 [4]	SMILES
316 nM	> 7940 nM	0.85	20 nM		O=C(CCNCCc1cc(F)cc(F)c1)N(CCNCCc1ccc(O)c2[nH]c(=O)ccc12)C1CCCCCC1 [Example 10, N-Cycloheptyl-3-(3,5-difluorophenethylamino)-N-(2-(2-(8-hydroxy-2-oxo-1,2-dihydroquinolin-5-yl)ethylamino)ethyl)propanamide bis(trifluoroacetate)]
316 nM	> 10000 nM	0.85	20 nM		O=C(CCNCCc1ccc(F)c(F)c1)N(CCNCCc1ccc(O)c2[nH]c(=O)ccc12)C1CCCCC1 [Example 16, N-Cyclohexyl-3-(3,4-difluorophenethylamino)-N-(2-(2-(8-hydroxy-2-oxo-1,2-dihydroquinolin-5-yl)ethylamino)ethyl)propanamide bis(trifluoroacetate)]
79.4 nM	2510 nM	0.9	1.58 nM		Cc1ccc(F)c(CCNCCC(=O)N(CCNCCc2ccc(O)c3c2OCC(=O)N3)C2CCCCC2)c1 [Example 33, N-Cyclohexyl-3-(2-fluoro-5-methylphenethylamino)-N-(2-(2-(5-hydroxy-3-oxo-3,4-dihydro-2H-benzo[b][1,4]oxazin-8-yl)ethylamino)ethyl)propanamide bis(trifluoroacetate)]
63.1 nM	1000 nM	0.9	1.58 nM		O=C1COc2c(CCNCCN(C(=O)CCNCCc3cc(Cl)ccc3F)C3CCCCC3)ccc(O)c2N1 [Example 34, 3-(5-Chloro-2-fluorophenethylamino)-N-cyclohexyl-N-(2-(2-(5-hydroxy-3-oxo-3,4-dihydro-2H-benzo[b][1,4]oxazin-8-yl)ethylamino)ethyl)propanamide bis(trifluoroacetate)]
631 nM		0.85	10 nM	3980 nM	Cl.O=C(CCOCCc1ccc(F)cc1)N(CCNCCc1ccc(O)c2[nH]c(=O)ccc12)C1CCCCC1 [Example 71, N-Cyclohexyl-3-(4-fluorophenethoxy)-N-(2-(2-(8-hydroxy-2-oxo-1,2-dihydroquinolin-5-yl)ethylamino)ethyl)propanamide hydrochloride]
501 nM		0.92	5.01 nM	3980 nM	Cl.O=C(CCOCCc1cccc(F)c1)N(CCNCCc1ccc(O)c2[nH]c(=O)ccc12)C1CCCCC1 [Example 72, N-Cyclohexyl-3-(3-fluorophenethoxy)-N-(2-(2-(8-hydroxy-2-oxo-1,2-dihydroquinolin-5-yl)ethylamino)ethyl)propanamide hydrochloride]
631 nM		0.94	3.98 nM	5010 nM	Cl.O=C(CCOCCc1ccccc1F)N(CCNCCc1ccc(O)c2[nH]c(=O)ccc12)C1CCCCC1 [Example 73, N-Cyclohexyl-3-(2-fluorophenethoxy)-N-(2-(2-(8-hydroxy-2-oxo-1,2-dihydroquinolin-5-yl)ethylamino)ethyl)propanamide hydrochloride]
